Each structure is given as a SMILES string.

The test concerns the target T1, IN-GCN2 interaction (UniProt P04585+Q9P2K8).
T1 construct: active truncated version of the human protein (192-1024); Recombinant full-length HIV-1 IN was produced in-house; purchased SignalChem (GCN2); IN made in-house in E. coli BL21(DE3)pLysS E12-11G; host or cells: BL21(DE3)pLysS for IN
The experiment in a line: biochemical. It counts as binding, HIV-1 IN; human GCN2. To be noted: read-out: inhibition of the IN-GCN2 interaction at 100 µM. The procedure: The interaction between IN and GCN2 was monitored using the AlphaLISA technology (Revvity). The reaction was performed in a shallow-well 384-well microplate (Revvity, AlphaPlate-384SW, ProxiPlate) with 24 nM GST-GCN2, 700 nM 6xHis-IN, 10 µg/mL of nickel chelate acceptor beads and glutathione donor beads, the test compound or an equivalent amount of DMSO (solvent at 10 % final concentration) in a buffer composed of 50 mM Tris-HCl pH 7.5, 1 mM DTT, 0.05% Tween 20, 0.1% bovine serum albumin (BSA) and 40 mM NaCl (final volume 15µl). First, the reaction was initiated by adding the various components except the donor beads. After 20 minutes at room temperature, the donor beads were added and the plate sealed. Data acquisition was performed 120 minutes later using a Victor Nivo Multimode Plate Reader (Revvity). Means, standard deviations and graphical representation were generated using Prism 8.4.3 software (GraphPad).
420 molecules from the National Cancer Institute Developmental Therapeutics Program (NCI DTP) were screened as modulators of the IN-GCN2 interaction in vitro. […] Experiments were conducted onto two separate AlphaPlates 384-shallow well, with 180 and 240 molecules respectively and 12 DMSO control each.

T1 sequence (Q9P2K8 192-1024, other chains not shown): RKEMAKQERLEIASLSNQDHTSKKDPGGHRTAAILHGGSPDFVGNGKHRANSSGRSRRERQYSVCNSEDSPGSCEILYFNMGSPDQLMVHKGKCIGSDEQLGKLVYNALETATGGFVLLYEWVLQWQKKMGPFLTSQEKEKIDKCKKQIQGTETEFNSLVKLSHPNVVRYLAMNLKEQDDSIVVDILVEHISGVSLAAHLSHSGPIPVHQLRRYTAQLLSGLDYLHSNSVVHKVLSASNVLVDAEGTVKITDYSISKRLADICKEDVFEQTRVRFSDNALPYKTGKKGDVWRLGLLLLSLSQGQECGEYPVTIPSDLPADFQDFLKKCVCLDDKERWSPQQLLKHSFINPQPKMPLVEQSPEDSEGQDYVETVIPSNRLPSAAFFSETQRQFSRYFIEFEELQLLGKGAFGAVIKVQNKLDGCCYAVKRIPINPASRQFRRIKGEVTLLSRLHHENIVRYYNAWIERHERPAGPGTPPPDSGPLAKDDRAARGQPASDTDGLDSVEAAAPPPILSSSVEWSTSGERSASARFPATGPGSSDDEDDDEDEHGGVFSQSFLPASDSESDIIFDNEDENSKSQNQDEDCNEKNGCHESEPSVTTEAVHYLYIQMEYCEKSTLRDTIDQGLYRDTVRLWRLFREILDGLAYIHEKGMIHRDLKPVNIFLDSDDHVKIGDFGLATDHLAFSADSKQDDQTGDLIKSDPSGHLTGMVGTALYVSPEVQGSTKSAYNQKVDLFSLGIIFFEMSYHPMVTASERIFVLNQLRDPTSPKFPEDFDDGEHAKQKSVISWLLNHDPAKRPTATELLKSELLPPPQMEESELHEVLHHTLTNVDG

By inhibition is commonly meant the drop in the measured response relative to a control, in per cent. As for `COc1cc2c(cc1OC)c1c(OC)c(OC)cc3c1c1c2sc(=S)n1CC3` [III-3a, 7,8,10,11-Tetramethoxy-4,5-dihydrodibenzo[de,g]-[1,3]thiazolo[5,4,3-ij]quinoline-2-thione], the inhibition at 100 µM is about 80%.
On to `CCOC(=O)N1CCc2cc(OC)c(OC)c3c2c1cc1cc(OC)c(OC)cc13` [III-3d, Dibenzo[de,g]quinoline-6-carboxylic acid, 4,5-dihydro-1,2,9,10-tetramethoxy-, ethyl ester], for which the inhibition at 100 µM is about 55%.

The record behind these values is patent EP4789664A1, “NOVEL ANTI[…] AND USES THEREOF” (priority 2025, dated 2026).
